Laboratory results reported in article PMC8952799, “Two Male-Specific Antimicrobial Peptides SCY2 and Scyreprocin as Crucial Molecules Participated in the Sperm Acrosome Reaction of Mud Crab Scylla paramamosain” (International Journal of Molecular Sciences, 2022).

Legend:
Assay in all cases: modified ELISA on progesterone-coated plate, Scatchard plot
[1] = molecular target: T1, rScyreprocin/rSCY2 mixture; format: binding, Scylla paramamosain; conditions: protein mixture 0-24 uM on plate coated with 3 ug progesterone; antibody detection; both proteins present
T1 construct: gene scyreprocin; complex not isolated, stoichiometry unknown

rSCY2 = molecular target: T2, rSCY2 (Scylla paramamosain, UniProt A0AAW0UAN3); format: binding; conditions: protein 0-24 uM on plate coated with 3 ug progesterone; antibody detection; rSCY2 alone
T2 construct: gene SCY2; recombinant His-tagged SCY2, purified

rScyreprocin = molecular target: T3, rScyreprocin (Scylla paramamosain, UniProt A0A7D0GB18); format: binding
T3 construct: recombinant His-tagged scyreprocin, purified
T3 sequence (A0A7D0GB18 1-84): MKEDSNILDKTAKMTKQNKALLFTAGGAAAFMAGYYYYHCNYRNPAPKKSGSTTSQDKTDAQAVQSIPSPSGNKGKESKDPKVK

T2 sequence (A0AAW0UAN3 25-124 limits assumed): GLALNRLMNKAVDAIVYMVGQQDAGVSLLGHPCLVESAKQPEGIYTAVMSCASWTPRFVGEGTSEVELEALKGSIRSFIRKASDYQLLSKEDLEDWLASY

## CC(=O)[C@H]1CC[C@H]2[C@@H]3CCC4=CC(=O)CC[C@]4(C)[C@H]3CC[C@]12C [progesterone]
[1]
  Kd: 72.2 nM
rSCY2
  Kd: 143 nM
rScyreprocin
  Kd: 259 nM
